Data published in US20040181130A1, “Methods for diagnosing skin lesions” (3M Innovative Properties Company, priority 2003, published 2004).

Tested on: AK lesions
Assay: Increase in AK lesion count during 16-week topical treatment of volunteers with AK lesions
Assay type: in vivo, human
Description: Volunteers having from four to eight clinically diagnosed AK lesions located within a 25 cm^2 treatment area were enrolled in a study. The study consisted of a prestudy period, a 16-week treatment period, and an 8-week post treatment period. Enrolled participants were randomized to receive either 5% imiquimod cream (ALDARA, 3M Pharmaceuticals, St. Paul, Minn.) or placebo cream containing no biologically active ingredient.
Subjects were instructed to topically administer cream from a single-use sachet. Sachets that contained imiquimod contained 250 mg of cream. One group of subjects applied cream two days per week for sixteen weeks, with dosing days occurring a minimum of three days apart. A second group of subjects applied cream three days per week for sixteen weeks, with dosing days occurring at least two days apart.
At a pretreatment visit, a baseline AK lesion count was established for each subject. Updated AK lesion counts were calculated at visits after four weeks, eight weeks, and sixteen weeks of treatment. For each individual, “new” AK lesions were calculated as the difference between the updated AK count and the baseline AK count. Thus, subclinical AK lesions may become apparent after treatment with ALDARA cream.

[1] = 5% cream topical 2x/week, Any visit, N=215
[2] = 5% cream topical 2x/week, Week 4, N=215
[3] = 5% cream topical 2x/week, Week 8, N=215
[4] = 5% cream topical 2x/week, Week 16, N=215
[5] = 5% cream topical 3x/week, Any visit, N=242
[6] = 5% cream topical 3x/week, Week 4, N=242
[7] = 5% cream topical 3x/week, Week 8, N=242
[8] = 5% cream topical 3x/week, Week 16, N=242

## CC(C)Cn1cnc2c(N)nc3ccccc3c21 [Imiquimod, imiquimod]
[1]
  % of Subjects with an Increase in AK Lesion Count: 47.9%
  Number of Subjects with an Increase in AK Lesion Count: 103
[2]
  % of Subjects with an Increase in AK Lesion Count: 36.7%
  Number of Subjects with an Increase in AK Lesion Count: 79
[3]
  % of Subjects with an Increase in AK Lesion Count: 28.4%
  Number of Subjects with an Increase in AK Lesion Count: 61
[4]
  % of Subjects with an Increase in AK Lesion Count: 9.3%
  Number of Subjects with an Increase in AK Lesion Count: 20
[5]
  % of Subjects with an Increase in AK Lesion Count: 42.6%
  Number of Subjects with an Increase in AK Lesion Count: 103
[6]
  % of Subjects with an Increase in AK Lesion Count: 33.1%
  Number of Subjects with an Increase in AK Lesion Count: 80
[7]
  % of Subjects with an Increase in AK Lesion Count: 16.5%
  Number of Subjects with an Increase in AK Lesion Count: 40
[8]
  % of Subjects with an Increase in AK Lesion Count: 6.2%
  Number of Subjects with an Increase in AK Lesion Count: 15
